Measurements taken from patent US20100093641A1, “SILK PROTEIN-MIMICKING PEPTIDES AND COMPOSITIONS FOR PREVENTING OR TREATING CRANIAL NEUROPATHIES COMPRISING THE SAME” (BRAINGUARD CO.,LTD., priority 2006, published 2010).
No end group written: not given here.

Tests used:
SK-N-SH neuronal cells = assay: Neuronal damage caused by high glucose level; type: cell-based, human; settings: 35 mM glucose, 3 hr; FIG. 9a
Description: Diabetes characterized by high level of glucose causes events to damage cells and tissues. This experiment is to analyze neuroprotective activities of SMPs on SK—N—SH neuronal cells in high level of glucose (35 mM).

SK-N-SH cells [1] = assay: Reactive oxygen species by DCF-DA staining against amyloid beta; type: cell-based, human; settings: 10 fM for 2 hr, then 20 μM amyloid beta; FIG. 7a
Description: For identifying molecular mechanisms governing neuroprotective effects of the present peptides, reactive oxygen species (ROS) known to involve in neurotoxicity of amyloid beta were analyzed. Using a DCF-DA staining method, quantitative determination of reactive oxygen species was performed and microscopic observation was performed.
SK—N—SH cells (ATCC) were first treated with 10 fM SMPs for 2 hr and then with 20 μM amyloid beta protein. Afterwards, cells were incubated for 30 min at 37° C. with 10 μM DCF-DA (6-carboxy-2′,7′-dichloro-dihydrofluoresceine diacetate, dicarboxym-ethylester) dissolved in HCSS buffer solution (20 mM HEPES, 2.3 mM CaCl2, 120 mM NaCl, 10 mM NaOH, 5 mM KC1, 1.6 mM MgCl2, 15 mM glucose) and 2% Pluronic F-127 (suspension additive).

SK-N-SH cells [2] = assay: Mitochondrial membrane potential by TMRE staining against amyloid beta; type: cell-based, human; settings: 10 fM for 2 hr, then 20 μM amyloid beta for 6 hr; FIGS. 8a-8c
Excerpt: We examined the influence of the present peptides on subcellular mitochondria to play a crucial role in cellular energy generation. It have been already reported that the amyloid beta protein induces elevation of reactive oxygen species in cells and simultaneously results in nuclear fragmentation, dysfunction of mitochondrial membrane and loss of mitochondrial functions. In this regard, we examined the influence of the present peptides on mitochondrial functions relating closely to cell viability.
Using a fluorescent staining with TMRE (tetramethyl rhodamine-ethylester, Molecular Probe), the disruption of mitochondrial membrane potential was measured. The positively charged TMRE is penetrated into mitochondrial membrane with help of mitochondrial membrane potential, and the fluorescent intensities indicate the maintenance of mitochondrial membrane potential. SK—N—SH cells (ATCC) were first treated with 10 fM SMPs for 2 hr and then with 20 μM amyloid beta protein for 6 hr. Afterwards, cells were incubated for 15 min at 37° C. with 100 nM TMRE and the fluorescent intensities were measured using a fluoremetry at excitation wavelength of 549 nm and emission wavelength of 574 nm. The fluorescent images were taken using a fluorescence microscope (Olympus IX70) and CCD camera.

p-Akt = p-Akt level on electrophoresis under high glucose; type: cell-based, human; settings: 35 mM glucose; FIG. 9b
Description: To identify molecular mechanisms governing neuroprotective activities of the present peptides on apoptosis of neuronal cells caused by high glucose level, p-Akt and p-JNK were analyzed on electrophoresis.

SK-N-SH cells [3] = assay: MTT reduction cell viability against amyloid beta; type: cell-based, human; settings: 10 fM for 2 hr before amyloid beta, 48 hr; FIG. 6b
Excerpt: The survival rate and nuclear fragmentation of neuronal cells indicating apoptosis of neuron were examined to verify the neuroprotective effects of SMPs against neurotoxic effects of the amyloid beta protein. For identifying mechanisms governing the protective effects against amyloid beta in animal tests, neurotoxic effects and nuclear damages in neuronal cell lines were examined. The substance “cosmo” used in this experiment was obtained by a preparation process identical to that for the substance MD.
The MTT reduction analysis was carried out. The human neuroblastoma cells, SK—N—SH cells (ATCC) were plated on PEI-coated 96-well plates at a density of 40,000 cells/well. The cells were cultured in DMEM supplemented with 10% FBS (fetal bovine serum). 2-hr before experiments, the medium was changed with low serum medium (DMEM with 1% FBS) and the cells were incubated with each test substance. […] Formazan precipitates formed by MTT reduction were dissolved in the solution (0.1 N HCl in anhydrous isopropanol), and absorbance at 570 nm was determined by ELISA
Reader. The value of the control group (only containing solvent) was determined as 100% and that of 0.9% Triton X-100-treated group as 0%. The value of each sample was relatively determined with referring the reference values.

SK-N-SH cells [4] = assay: Nuclear fragmentation by Hoechst 33258 staining against amyloid beta; type: cell-based, human; settings: 10 fM for 2 hr, then 20 μM amyloid beta for 24 hr; FIG. 6a
Description: The morphological changes of nuclear chromosomes by amyloid beta were observed by staining with DNA-binding fluorochrome bis-benz (Hoechst 33258 dye). SK—N—SH cells were incubated with 10 fM SMPs for 2 hr and then with 20 μM amyloid beta for 24 hr. 0.5-3.0×10^6 cells treated were centrifuged at 300×g for 10 min and washed with PBS, followed by fixation with 50 μl paraformaldehyde for 10 min at room temperature. After washing with PBS, cells were incubated with 16 μg/ml bis-benzimide in PBS (15 μl) for 15 min at room temperature and their 10 μl-aliquot was placed on a slid glass, followed by the observation of apoptotic nuclear chromosome under a fluorescence microscope.

[5] = tested on: Alzheimer's disease animal models; assay: Passive avoidance test after amyloid beta injection; type: in vivo, rat; settings: amyloid beta injected; 5 mg/kg i.p. for 2 weeks; FIG. 4
Description: This experiment was carried out according to the passive avoidance test to examine whether the SMPs prevents the declines in learning and memory abilities by neurotoxic substances. Before performing learning test, the amyloid beta protein was injected into animals through the ventral lateral region using a stereotaxic system, resulting in establishing Alzheimer's disease animal models. 3-day later, 5 mg/kg of SMPs were intraperitoneally administered for 2 weeks. Automated shuttle box (Model PACS-30, Columbus Instruments International Company) was used as test device. The shuttle box was divided into two rooms with the same area (19″ L×9″ W×10.875″ H) by middle door (3″ L×2.625″ W), and their floors were equipped with current-generating device. Each room might be lighted a 20 W light bulb on hinged plexiglass lid. A white rat might enter a dark room through the door. Noise was control below 60 dB and the test was performed in the dark room. The rat was initially placed in a lighted room and moved to a dark room when the door was opened. At this time, the door was automatically closed and light was turned off. […] Two weeks after injection of the amyloid beta protein through the ventral lateral region (8 nmol/ 5 μl in normal saline), the rat was placed in the lighted room, and time required for the rat to move to the dark room was measured. […]

[6] = tested on: PD animal models having apoptotic dopaminergic neuronal cells by 6-OHDA; assay: Amphetamine-induced asymmetric rotation in 6-OHDA Parkinson's disease animal models; type: in vivo; settings: 6-OHDA mice; SMPs 5 mg/kg intraperitoneally for 2 weeks; FIG. 2
Description: The protection efficacy of the present peptides was tested by behavior experiments using animal models. The mice with damaged dopaminergic neurons by 6-OHDA were administered with amphetamine to induce asymmetric rotation. Then, the present peptides were examined to recover normal states.
5-week old male mice (SAMTAKO, Korea) were used. Four-week old mice were purchased and adapted for one week, followed by establishing animal models using a stereotaxic system (KOFT, CA, USA). In these experiments, 6-OHDA (3 μg/μl in normal saline) was injected into the desired region (0.0 mm posterior to bregma; 2.0 mm lateral to midline; 3.0 mm ventral to the dura) by use of the stereotaxic system, resulting in establishment of animal models. 6-OHDA was injected into substantial nigra in which neurites of dopminergic neurons are connected and sustained death of dopminergic neurons is well induced. Two weeks after 6-OHDA injection, animals were tested for amphetamine-induced turning behavior (amphetamine at 0.1 mg/kg i.p.). The mice were tested for […]. Animals with net rotational asymmetry of at least 400 full turns were selected for test. 5 mg/kg of SMPs were intraperitoneally administered for 2 weeks and their effects were examined by behavior tests. The asymmetric rotation was rapidly relieved with the lapse of time.

dopaminergic neurons = assay: Dopaminergic neuronal cell death induced by 6-OHDA, methyl green histochemical staining; type: in vivo; settings: 6-OHDA injected mice; SMPs 5 mg/kg intraperitoneally for 2 weeks; FIG. 1
Description: To analyze neuroprotective effects of the present peptides SMPs, their influence on the death of dopaminergic neurons, a main cause of Parkinson's disease, was tested. 6-OHDA (6-hydroxydopamine) was injected into brain tissues using a stereotaxic system and the death of dopaminergic neurons was observed by histochemcial staining.
5-week old male mice (SAMTAKO, Korea) were used. Four-week old mice were purchased and adapted for one week, followed by inducing the death of neuronal cells using a stereotaxic system (KOFT, CA, USA). In these experiments, 6-OHDA (3 μg/μl in normal saline) was injected into the desired region (0.0 mm posterior to bregma; 2.0 mm lateral to midline; 3.0 mm ventral to the dura) by use of the stereotaxic system, resulting in establishment of animal models. 6-OHDA was injected into substantial nigra in which neurites of dopminergic neurons are connected and sustained death of dopminergic neurons is well induced. After injection of 6-OHDA, 5 mg/kg of SMPs were intraperitoneally administered for 2 weeks. Thereafter, the test mice were fixed using 4% paraformaldehyde. Following the dissection of brain tissues from test mice, they were washed with PBS containing 4% paraformaldehyde for 24 hr and then dehydrated for 4 days using 15%, 20%, 25% and 30% sucrose solutions. The brain tissues were sliced by a freezing microtome. […]

GAGAGVGY [SMP-1, GAGAGVGY]
inhibition of apoptosis caused by high glucose level (SK-N-SH neuronal cells): effectively inhibits apoptosis
levels of reactive oxygen species (SK-N-SH cells [1]): decrease in levels of reactive oxygen species at similar extent
abnormality of mitochondrial membrane (TMRE fluorescence) (SK-N-SH cells [2]): little or no abnormality of mitochondrial membrane
level of p-Akt (p-Akt): highest level of p-Akt
inhibition of apoptosis of neuronal cells (cell viability, MTT) (SK-N-SH cells [3]): dramatically inhibit apoptosis of neuronal cells
nuclear fragmentation (SK-N-SH cells [4]): greatly decreased

GVGAGY [SMP-4, GVGAGY]
inhibition of apoptosis caused by high glucose level (SK-N-SH neuronal cells): effectively inhibits apoptosis
effect on reactive oxygen species compared to oligo 1 (SK-N-SH cells [1]): a little enhanced effects compared to the oligo 1
levels of reactive oxygen species (SK-N-SH cells [1]): decrease in levels of reactive oxygen species at similar extent
abnormality of mitochondrial membrane (TMRE fluorescence) (SK-N-SH cells [2]): little or no abnormality of mitochondrial membrane
inhibition of apoptosis of neuronal cells (cell viability, MTT) (SK-N-SH cells [3]): dramatically inhibit apoptosis of neuronal cells
nuclear fragmentation (SK-N-SH cells [4]): greatly decreased

COc1ccc2[nH]cc(CCNC(C)=O)c2c1 [melatonin]
decline in learning and memory abilities (passive avoidance) [5]: prevent the decline in learning and memory abilities
relief of behavior disorders (amphetamine-induced asymmetric rotation) [6]: contribute to the relief of behavior disorders
prevention of death of dopaminergic neurons (neurotoxicity of 6-OHDA) (dopaminergic neurons): effectively prevented
